Laboratory results reported in article PMC8147254, “Efflux at the Blood-Brain Barrier Reduces the Cerebral Exposure to Ochratoxin A, Ochratoxin α, Citrinin and Dihydrocitrinone” (Toxins, 2021).
Read-outs that look alike come from different tables or passages of the source.

How the values were obtained:
[1] = 50 German volunteers, dried blood spot; cited from earlier work
PBCEC [2] = type: cell-based, porcine; settings: pig
Protocol: In order to study the barrier integrity PBCEC were incubated with 1 µM OTA, OTα, CIT and DHCIT in the apical compartment (blood side) of Transwell® filter inserts for 48 h. The TEER values as well as the electrical capacitance (cCL) were monitored by cellular impedance spectroscopy (Figure 4A,B). As a negative control the permeability of […] was measured after 48 h. Sucrose is not transported by any cellular transport protein and represents a marker for an intact BBB. […]
6.1. Cellular impedance spectroscopy […]
6.2. […] permeability
As additional method to control the barrier tightness the permeability of radiolabeled […]
across the Transwell® inserts was measured. Since 14C sucrose is not transported or taken up by endothelial cells, the permeability of 14C sucrose is an appropriate parameter for barrier integrity.
After 48 h exposure to the mycotoxins 1 μ Ci (37 kBq) […] (Amersham, Buckinghamshire, UK) was applied to the apical compartment. Samples from the basolateral compartment were collected after 10, 20, 30, 40, 60 and 80 min, diluted in scintillation fluid and analyzed with a scintillation counter as previously described.

PBCEC [3] = type: cell-based, porcine; settings: 1 µM apical, 48 h, referred to t = 0 h, n = 9 (negative control 88 ± 4%)
Protocol: In order to study the barrier integrity PBCEC were incubated with 1 µM OTA, OTα, CIT and DHCIT in the apical compartment (blood side) of Transwell® filter inserts for 48 h. The TEER values as well as the electrical capacitance (cCL) were monitored by cellular impedance spectroscopy (Figure 4A,B). As a negative control the permeability of […] was measured after 48 h. Sucrose is not transported by any cellular transport protein and represents a marker for an intact BBB.
For barrier integrity, TEER values were monitored using a cellZscope® cellular impedance spectrometer (nanoAnalytics, Münster, Germany). […]. The detailed protocols can be found in the Supplementary Materials. […]
6.1. Cellular impedance spectroscopy
To monitor the barrier integrity during all transfer studies, the transendothelial electrical resistance (TEER) was measured with a cellZscope® cellular impedance spectrometer (nanoAnalytics, Münster, Germany) using a module suitable for 24 Transwell® filter inserts. After the mycotoxins were added to the cell culture medium, TEER was analyzed until the end of the experiment (48 h). The waiting time after each run was set to 10 min, resulting in 60 scans per 48 h.
The results were normalized to the TEER values of the first impedance spectrum of each well. Data processing was performed using the cellZscope 1.3.4 software (nanoAnalytics, Münster, Germany).

in vitro = settings: pig
[4] = 13 German volunteers; cited from earlier work
[5] = 289 µg OTA/kg body weight/48 h for up to 6 weeks; cited from earlier work
PBCEC [6] = settings: for cytotoxic or barrier-weakening (adverse) effects / effect on cellular viability: up to 10 µM
PBCEC [7] = settings: 48 h
[8] = cellular viability (dehydrogenase activity) compared to the negative control, 1 µM, 48 h, CCK-8, n = 18
[9] = cellular viability (dehydrogenase activity) compared to the negative control, 10 µM, 48 h, CCK-8, n = 18

SMILES	mean whole blood concentration of OTA [1]	permeability pc (14C sucrose) after mycotoxin incubation (PBCEC [2])	relative TEER value after 48 h (PBCEC [3])	viability at 1 µM (in vitro; [8])	viability at 10 µM (in vitro; [9])	mean OTA concentration in blood plasma [4]	concentration in brain tissue [5]	dehydrogenase activity compared to the negative control (PBCEC [6]; 10 nM, 48 h, CCK-8, n = 18)	cellular morphology (PBCEC [7]; 100 nM and lower concentrations)	cellular morphology (PBCEC [7]; 10 µM)	viability at 1 µM (in vitro)	viability at 10 µM (in vitro)	cytotoxic or barrier-weakening (adverse) effects (PBCEC [6])	effect on cellular viability (PBCEC [6]; 48 h)	mean total OTα level in blood plasma [4]
C[C@@H]1Cc2c(Cl)cc(C(=O)N[C@@H](Cc3ccccc3)C(=O)O)c(O)c2C(=O)O1 [OTA, Ochratoxin A]	0.21 ± 0.066 ng/mL	0.81 ± 0.17 10^−6 cm/s	62 ± 10%	92 ± 23%	3 ± 4%	0.25 ± 0.03 ng/mL	up to 94 ± 16 ng/g	112 ± 12%	no morphological changes	very similar morphological changes of the PBCEC as they were observed for 10 µM T-2 toxin					
CC1=C2C(=CO[C@H](C)[C@H]2C)C(O)=C(C(=O)O)C1=O [CIT, Citrinin]		0.50 ± 0.33 10^−6 cm/s	81 ± 10%							unremarkable	106 ± 13%	134 ± 13%	no adverse effects	neither altered the cellular viability	
Cc1c(O)c(C(=O)O)c(O)c2c1[C@H](C)[C@@H](C)OC2=O [DHCIT, dihydrocitrinone]		0.38 ± 0.17 10^−6 cm/s	79 ± 9%							unremarkable	96 ± 11%	87 ± 9%	no adverse effects	neither altered the cellular viability	
C[C@@H]1Cc2c(Cl)cc(C(=O)O)c(O)c2C(=O)O1 [OTα, ochratoxin α]		0.56 ± 0.24 10^−6 cm/s	92 ± 16%	119 ± 18%	100 ± 14%					unremarkable			no adverse effects	neither altered the cellular viability	2.99 ± 2.24 ng/mL
